This assay relates to dystrophin-deficient mdx mouse. Briefly: Voluntary daily running performance of idebenone-treated mdx mice. In kind it is in vivo. The protocol:
The effect of idebenone on the running performance was tested in the dystrophin-deficient mdx mouse, a validated animal model for DMD. Starting at day 21 of age, mdx mice were treated with idebenone. Their daily running performance was compared to mdx mice treated with vehicle only and to non-treated wild-type mice. For this, idebenone was dissolved in 0.5% w/v carboxymethylcellulose (CMC) to a final concentration of 20 mg/ml. Idebenone (20 mg/ml in 0.5% CMC) was applied once a day by gavage feeding. The final dose of idebenone at all time points was 200 mg/kg body weight. Control mice received the same amount of vehicle only. […] Idebenone treated mdx mice performed clearly better compared to the vehicle-treated mdx mice from the start of the analysis.

In the case of `COC1=C(OC)C(=O)C(CCCCCCCCCCO)=C(C)C1=O` [idebenone, 2,3-dimethoxy-5-methyl-6-(10-hydroxydecyl)-1,4-benzoquinone], the “Total daily running distance” value (mdx mice treated daily with idebenone vs vehicle-treated mdx and wild-type mice, distance in meters) is recorded as “clearly increased”. Also, the Daily running performance result (mdx mice, 200 mg/kg body weight once a day by gavage in 0.5% CMC from day 21 of age, analysed 29-84 days of age, vs vehicle-treated mdx mice) is listed as “prominent increase”.
